Key:
Type in all cases: in vivo
DIO mice [1] = assay: Chronic treatment of DIO mice (body weight, food intake, DEXA, glucose homeostasis); conditions: for hepatic steatosis (H&E liver): 3 weeks; for food intake: 3 weeks treatment; for glucose tolerance test (GTT): after 1 week; for HOMA-IR insulin resistance / serum insulin levels / serum leptin levels: after 3 weeks; for food intake and total body fat mass (summary): high fat diet induced mice
Experimental: DIO mice were treated with ACY775 (10 mg/kg/day, i.p.) for 3 weeks. Daily body weight (g) of DIO mice treated with vehicle (n=17) or ACY775 (n=17) during 3 weeks of treatment was determined. Daily food intake (g) during 3 weeks of vehicle or ACY775 treatment was assessed. 24 hours' food intake per mouse during the first week of vehicle or ACY775 treatment was determined. Serum leptin (ng/ml) levels after 3 weeks of vehicle (n=24) or ACY775 (n=24) treatment was assessed. Lean mass (g), fat mass (g) and fat percentage (%) after 3 weeks of vehicle (n=17) or ACY775 (n=17) treatment measured by Dual-energy X-ray absorptiometry (DEXA) scan. DEXA scans were performed in two different cohorts. Glucose tolerance test (GTT) after 1 week of vehicle (n=33) or ACY775 (n=26) treated DIO mice was assessed. Area of curve (AOC) analysis for GTT was performed. Blood glucose (mg/dl) levels after 1 week of vehicle (n=17) or ACY775 (n=16) were assessed in treated DIO mice. Insulin tolerance test (ITT) was performed after 2 weeks of vehicle (n=31) or ACY775 (n=21) treatment of DIO mice. Serum insulin (ng/ml) levels were measured after 3 weeks of vehicle (n=22) or ACY775 (n=21) in treated DIO mice. A homeostatic model assessment of insulin resistance (HOMA-IR) was analyzed after 3 weeks of vehicle (n=14) or ACY775 (n=13) treated DIO mice.
Food intake was analyzed hourly until 3:00 am. […] DEXA scans were performed in two different cohorts.
DIO mice then were treated with ricolinostat (50 mg/kg, i.p.) for 3 weeks. Daily body weight (g), daily food intake (g), serum leptin (ng/ml) levels after 3 weeks of vehicle (n-8) or ricolinostat (n=8) treatment, lean mass (g); fat mass and fat percentage (%) after 3 weeks of vehicle (n=16) or ricolinostat (n=17) treatment measured by DEXA scan were determined.
Blood glucose (mg/dl) levels were measured after 1 week of vehicle (n=16) or ricolinostat (n=16) treated DIO mice. GTT after 1 week of vehicle (n=17) or ricolinostat (n=16) treatment of DIO mice was assessed. AOC analysis for GTT was performed. ITT after 2 weeks of vehicle (n=17) or ricolinostat (n=16) treated DIO mice was measured. Serum insulin (ng/ml) levels after 3 weeks of vehicle (n=8) or ricolinostat (n=8) treatment were measured in DIO mice. Liver sections from 3 weeks of vehicle or ricolinostat treated DIO mice were stained by H&E.
DIO mice then were treated with bavarostat (10 mg/kg, i.p.) for 3 weeks and daily body weight (g) of DIO mice treated with Veh (n=9) or bavarostat (n=9) measured during the three weeks of treatment period. Daily food intake (g) during 3 weeks of Veh or bavarostat treatment was also measured.
ACY1083 was administered to DIO mice as described in Example 3.

DIO mice [2] = assay: CLAMS metabolic cages in DIO mice; conditions: for energy expenditure: 3 days, ACY775 10 mg/kg, ACY738 50 mg/kg i.p.
Experimental: Diet induced obese (DIO) mice were placed into metabolic cages and received ACY775 (10 mg/kg, i.p., n=7) or vehicle (n=8) once a day for 3 days. Energy expenditure, respiratory exchange ratios (RER; VCO2/VO2), ambulatory count (physical activity) from each group of mice were determined. Bar graphs represent average of two dark (8-20 and 32-44 hr) and two light cycles ([…]).
Comprehensive Lab Animal Monitoring System (CLAMS) was used to measure metabolic parameters such as energy expenditure (EE) and respiratory exchange ratio (RER) and physical activity levels in Vehicle- and ACY775-treated mice.

DIO mice [3] = assay: Conditioned place preference (CPP) assay in DIO mice; conditions: for time and frequency in the food zone / time and frequency in the food-containing white side chambers: fed and fasting conditions; for cumulative duration in the dark side chambers: fed or fasting conditions
Experimental: DIO mice were treated with vehicle or ACY775 (10 mg/kg, i.p., once a day) for 3 days. On the fourth day, 1 h after the beginning of the light cycle, the mice were administered vehicle or ACY775 (10 mg/kg, i.p.) and the conditioned place preference (CPP) assay under the ad libitum feeding condition was utilized. The CPP assay was performed 6 h later under the ad libitum feeding condition (n=10 mice for both the Vehicle- and ACY775-treated groups). CPP assay under a 20-h fasting condition was also performed. DIO mice were treated with vehicle or ACY775 (10 mg/kg, i.p.) once a day and fasted for 15 h after the third injection. On the fourth day, 1 h after the beginning of the light cycle, the mice were administered vehicle or ACY775 (10 mg/kg body weight, i.p.) and the CPP assay was performed 5 h after this injection under the fasting condition (n=10 mice for both the Vehicle- and ACY775-treated groups).
Measurements were made of the total distance that the mice traveled during the CPP test, the average velocity of movement during the assay, the total time the mice spent in the dark chamber during the test; the frequency with which the mice traveled to the dark chamber during the test; the total time the mice spent in the food-paired white chamber; the frequency with which the mice traveled to the food paired white chamber; the total time the mice spent in the food-containing zone within the food-paired side chamber; and the frequency with which the mice traveled to the food-containing zone within the food-paired side chamber during the test.

db/db mice = assay: Chronic treatment of db/db mice; conditions: for ITT blood glucose: 2 weeks; for fasting blood glucose: after the first week
Experimental: Daily food intake (g), Serum leptin (ng/ml), lean mass (g), fat mass (g) and fat percentage (%) were measured after 3 weeks of treatment measured by DEXA scan. GTT was determined after 1 week of treatment. AOC analysis for GTT was performed and Blood glucose (mg/dl) levels were measured after 1 week of treatment. Blood glucose (mg/dl) levels and Serum insulin (ng/ml) levels were measured after 3 weeks of treatment. ITT was assessed after 2 weeks of treatment. H&E staining of the liver sections was conducted after 3 weeks of treatment.

SMILES | insulin tolerance test (ITT) (DIO mice [1]; DIO mice) | hepatic steatosis (H&E liver) (DIO mice [1]; DIO mice) | food intake (DIO mice [1]; DIO mice) | glucose tolerance test (GTT) (DIO mice [1]; DIO mice) | HOMA-IR insulin resistance (DIO mice [1]; DIO mice) | serum insulin levels (DIO mice [1]; DIO mice) | serum leptin levels (DIO mice [1]; DIO mice) | food intake and total body fat mass (summary) (DIO mice [1]) | energy expenditure (DIO mice [2]) | time and frequency in the food zone (DIO mice [3]) | time and frequency in the food-containing white side chambers (DIO mice [3]) | cumulative duration in the dark side chambers (DIO mice [3]) | food intake (db/db mice) | ITT blood glucose (db/db mice) | fasting blood glucose (db/db mice) | daily food intake on treatment (DIO mice [1]; DIO mice, ACY775 10 mg/kg, ACY738 50 mg/kg i.p.) [g] | physical activity level (DIO mice [2]; dark and light cycles) | blood glucose lowering at end of treatment (db/db mice; 3 weeks)
O=C(NO)c1cnc(NC2(c3ccccc3)CC2)nc1 [ACY738] | improved insulin tolerance | improved hepatic steatosis | severely reduced | significant improvement of glucose homeostasis | ameliorated insulin resistance | reduced insulin levels | significantly decreased | significant reduction of food intake and total body fat mass | higher energy expenditure in light cycle, though without significant difference in dark cycle | spent significantly shorter time and displayed lower frequency of appearance | spent similar time and frequency of appearance | no significant differences in cumulative duration | not affected | no significant difference in blood glucose levels | not affected | – | – | –
O=C(NO)c1cnc(NC2(c3cccc(F)c3)CCCCC2)nc1 [ACY775, 2-[[1-(3-fluorophenyl)cyclohexyl]amino]-N-hydroxy-5-pyrimidinecarboxamide] | – | almost completely abolished hepatic steatosis | highly significant reduction | significantly improved glucose tolerance | significantly reduced the insulin resistance | significantly reduced the circulating insulin levels | significantly downregulated | significant reduction of food intake and total body fat mass | higher in the both dark and light cycle | spent significantly shorter time and displayed lower frequency of appearance | spent significantly shorter time and had lower frequency of appearance | no significant differences in cumulative duration | transitionally reduced | no significant difference in blood glucose levels | lower in ACY775-treated mice than vehicle-treated mice | 0.85 ± 0.06 | not different | completely diminished

Reference: patent US20250213561A1, “SELECTIVE HYPOTHALAMUS PERMEABLE HDAC6 INHIBITORS FOR TREATMENT OF LEPTIN-RESISTANT OBESITY” (The Children’s Medical Center Corporation, priority 2022, published 2025)
